Assay: method code SF, from DOI: 10.1016/0378-5173(89)90136-1

| Structure (SMILES) | logP |
| --- | --- |
| O=C(OCCOCCOCCO)c1ccccc1 | 1.09 |
| COCCOC(=O)c1ccccc1 | 1.78 |
| O=C(NCc1ccccc1O)c1ccccc1 | 2.55 |
| O=C(OCCNC(=O)C(F)(F)F)c1ccccc1 | 2.25 |
| O=C(OCCO)c1ccccc1 | 1.12 |
| CCNC(=O)CNC(=O)c1ccccc1 | 0.58 |
| O=[N+]([O-])c1ccc(OCCN2CCOCC2)cc1 | 1.54 |
| CCNC(=O)[C@@H](NC(=O)CNC(=O)c1ccccc1)C(C)C | 1.05 |
| CCCCCCNC(=S)NC | 2.31 |
| O=C(OC1C2C=CC1C=C2)c1ccccc1 (stereo not given) | 3.03 |
